Test results published in PMC3335988 (Neurochemistry international, 2011).
Structures can show the parent of a compound that is named as a salt. Where two headings read alike, the source gives them in different places. Marks after values point to notes of the source that are not given here.

Key:
human GluN1/GluN2B = human GluN1/GluN2B (Homo sapiens, UniProt Q05586+Q13224); assay: cell-based; type: cell-based; conditions: for nH (Hill slope, inhibition) / nH (Hill slope) / EC50: human GluN1/GluN2B; for nH (Hill slope, inhibition): 100 µM glutamate plus 30 µM glycine; for nH (Hill slope, inhibition) / EC50: -40 mV
rat GluN1/GluN2B [1] = target: T1, rat GluN1/GluN2B (Rattus norvegicus, UniProt P35439+Q00960); assay: cell-based; type: cell-based; conditions: for nH (Hill slope, inhibition): 100 µM glutamate plus 30 µM glycine; for nH (Hill slope): 30 µM glycine
T1 sequence (Q00960 27-1482, other chains not shown): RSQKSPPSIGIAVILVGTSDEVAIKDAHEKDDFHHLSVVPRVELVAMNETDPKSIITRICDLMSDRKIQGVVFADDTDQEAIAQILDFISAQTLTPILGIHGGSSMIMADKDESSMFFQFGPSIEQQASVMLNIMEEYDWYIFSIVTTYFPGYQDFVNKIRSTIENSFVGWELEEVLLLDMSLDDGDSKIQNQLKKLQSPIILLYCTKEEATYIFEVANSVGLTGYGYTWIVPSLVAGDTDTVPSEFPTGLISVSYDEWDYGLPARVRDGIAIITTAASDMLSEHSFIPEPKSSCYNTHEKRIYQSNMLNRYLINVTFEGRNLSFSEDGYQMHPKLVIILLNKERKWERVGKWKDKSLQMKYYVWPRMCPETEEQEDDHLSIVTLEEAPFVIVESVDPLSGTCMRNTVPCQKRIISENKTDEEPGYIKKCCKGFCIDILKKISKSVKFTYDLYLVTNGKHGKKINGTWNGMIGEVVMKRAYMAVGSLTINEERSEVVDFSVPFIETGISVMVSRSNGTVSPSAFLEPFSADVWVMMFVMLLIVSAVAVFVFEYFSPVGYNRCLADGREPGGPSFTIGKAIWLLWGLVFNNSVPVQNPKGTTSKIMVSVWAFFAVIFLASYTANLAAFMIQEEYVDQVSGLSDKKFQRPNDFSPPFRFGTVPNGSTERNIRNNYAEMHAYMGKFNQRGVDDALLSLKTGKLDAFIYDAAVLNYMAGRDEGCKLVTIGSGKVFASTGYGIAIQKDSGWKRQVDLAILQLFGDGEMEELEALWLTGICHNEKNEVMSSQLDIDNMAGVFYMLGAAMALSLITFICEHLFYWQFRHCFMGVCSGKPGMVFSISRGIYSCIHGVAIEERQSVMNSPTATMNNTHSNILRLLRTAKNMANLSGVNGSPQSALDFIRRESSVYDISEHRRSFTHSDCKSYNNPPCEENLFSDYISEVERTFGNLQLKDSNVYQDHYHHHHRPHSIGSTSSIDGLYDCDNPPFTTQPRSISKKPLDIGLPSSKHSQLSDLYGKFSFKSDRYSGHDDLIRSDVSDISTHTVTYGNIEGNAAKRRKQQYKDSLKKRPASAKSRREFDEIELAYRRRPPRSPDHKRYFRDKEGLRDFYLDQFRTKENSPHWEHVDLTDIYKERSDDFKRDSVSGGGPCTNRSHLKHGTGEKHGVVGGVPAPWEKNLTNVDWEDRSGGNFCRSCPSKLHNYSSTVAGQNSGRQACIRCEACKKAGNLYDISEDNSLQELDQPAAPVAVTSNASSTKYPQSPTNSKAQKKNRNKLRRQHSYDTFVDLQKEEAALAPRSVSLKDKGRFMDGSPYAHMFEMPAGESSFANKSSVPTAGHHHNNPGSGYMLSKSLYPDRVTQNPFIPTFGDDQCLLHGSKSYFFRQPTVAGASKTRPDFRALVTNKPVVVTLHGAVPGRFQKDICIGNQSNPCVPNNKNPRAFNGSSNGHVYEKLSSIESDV

rat GluN1/GluN2C = rat GluN1/GluN2C (Rattus norvegicus, UniProt P35439+Q00961); type: cell-based; conditions: for nH (Hill slope): 30 µM glycine
rat GluN1/GluN2D [2] = target: T2, rat GluN1/GluN2D (Rattus norvegicus, UniProt P35439+Q62645); conditions: Table 2, ref Hansen and Traynelis, 2011; cited from earlier work
human GluN1/GluN2D [3] = target: T3, human GluN1/GluN2D (Homo sapiens, UniProt O15399+Q05586); assay: cell-based; type: cell-based
human GluN1/GluN2A = human GluN1/GluN2A (Homo sapiens, UniProt Q05586+Q12879); type: cell-based; conditions: for nH (Hill slope, inhibition): 100 µM glutamate plus 30 µM glycine
Chain of human GluN1/GluN2A (Q12879 23-1464, other chains not shown): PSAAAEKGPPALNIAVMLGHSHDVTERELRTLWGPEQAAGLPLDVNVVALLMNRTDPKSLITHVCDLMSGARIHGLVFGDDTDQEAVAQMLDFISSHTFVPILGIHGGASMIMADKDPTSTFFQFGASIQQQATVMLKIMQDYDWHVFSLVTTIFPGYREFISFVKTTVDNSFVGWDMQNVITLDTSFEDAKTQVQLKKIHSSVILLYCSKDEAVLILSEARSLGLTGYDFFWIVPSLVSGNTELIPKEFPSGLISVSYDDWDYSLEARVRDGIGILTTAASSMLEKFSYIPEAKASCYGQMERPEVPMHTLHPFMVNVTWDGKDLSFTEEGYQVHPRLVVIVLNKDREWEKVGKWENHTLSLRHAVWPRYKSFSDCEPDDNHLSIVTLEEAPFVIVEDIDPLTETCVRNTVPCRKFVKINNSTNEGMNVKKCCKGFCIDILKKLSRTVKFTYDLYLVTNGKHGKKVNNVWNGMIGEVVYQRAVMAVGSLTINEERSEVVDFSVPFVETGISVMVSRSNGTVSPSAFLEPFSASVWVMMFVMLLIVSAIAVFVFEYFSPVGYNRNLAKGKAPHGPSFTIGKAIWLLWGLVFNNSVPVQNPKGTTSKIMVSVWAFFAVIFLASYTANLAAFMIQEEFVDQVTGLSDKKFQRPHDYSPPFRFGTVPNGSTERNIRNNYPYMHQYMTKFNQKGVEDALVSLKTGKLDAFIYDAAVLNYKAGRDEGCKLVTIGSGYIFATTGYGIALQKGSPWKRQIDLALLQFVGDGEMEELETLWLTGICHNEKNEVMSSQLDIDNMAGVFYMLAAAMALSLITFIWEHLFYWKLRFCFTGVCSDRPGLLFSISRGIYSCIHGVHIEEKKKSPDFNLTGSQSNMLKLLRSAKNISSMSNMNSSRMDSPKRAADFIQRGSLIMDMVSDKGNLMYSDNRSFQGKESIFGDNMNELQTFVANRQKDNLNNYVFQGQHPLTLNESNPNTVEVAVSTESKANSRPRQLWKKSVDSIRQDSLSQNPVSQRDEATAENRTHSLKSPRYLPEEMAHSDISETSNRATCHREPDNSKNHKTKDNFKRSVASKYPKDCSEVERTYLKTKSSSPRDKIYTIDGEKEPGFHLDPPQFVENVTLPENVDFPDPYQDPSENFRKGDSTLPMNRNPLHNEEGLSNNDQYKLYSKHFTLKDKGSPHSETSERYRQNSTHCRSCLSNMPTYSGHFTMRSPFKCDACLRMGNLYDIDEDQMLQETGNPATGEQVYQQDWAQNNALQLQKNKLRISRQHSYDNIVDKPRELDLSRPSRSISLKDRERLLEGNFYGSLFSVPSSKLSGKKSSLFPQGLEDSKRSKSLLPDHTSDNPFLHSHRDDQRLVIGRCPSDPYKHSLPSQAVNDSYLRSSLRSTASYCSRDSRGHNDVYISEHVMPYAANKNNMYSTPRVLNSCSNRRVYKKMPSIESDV

rat GluN1/GluN2B [4] = target: T1, rat GluN1/GluN2B; conditions: HEK293 cells, 2 mM extracellular Ca2+, ref Vicini et al., 1998; cited from earlier work
human GluN1/GluN2C = human GluN1/GluN2C (Homo sapiens, UniProt Q05586+Q14957, INS1047EPP); assay: cell-based; type: cell-based
rat GluN1/GluN2A [5] = target: T4, rat GluN1/GluN2A (Rattus norvegicus, UniProt P35439+Q00959); conditions: HEK293 cells, 2 mM extracellular Ca2+, ref Vicini et al., 1998; cited from earlier work
T4 sequence (Q00959 23-1464, other chains not shown): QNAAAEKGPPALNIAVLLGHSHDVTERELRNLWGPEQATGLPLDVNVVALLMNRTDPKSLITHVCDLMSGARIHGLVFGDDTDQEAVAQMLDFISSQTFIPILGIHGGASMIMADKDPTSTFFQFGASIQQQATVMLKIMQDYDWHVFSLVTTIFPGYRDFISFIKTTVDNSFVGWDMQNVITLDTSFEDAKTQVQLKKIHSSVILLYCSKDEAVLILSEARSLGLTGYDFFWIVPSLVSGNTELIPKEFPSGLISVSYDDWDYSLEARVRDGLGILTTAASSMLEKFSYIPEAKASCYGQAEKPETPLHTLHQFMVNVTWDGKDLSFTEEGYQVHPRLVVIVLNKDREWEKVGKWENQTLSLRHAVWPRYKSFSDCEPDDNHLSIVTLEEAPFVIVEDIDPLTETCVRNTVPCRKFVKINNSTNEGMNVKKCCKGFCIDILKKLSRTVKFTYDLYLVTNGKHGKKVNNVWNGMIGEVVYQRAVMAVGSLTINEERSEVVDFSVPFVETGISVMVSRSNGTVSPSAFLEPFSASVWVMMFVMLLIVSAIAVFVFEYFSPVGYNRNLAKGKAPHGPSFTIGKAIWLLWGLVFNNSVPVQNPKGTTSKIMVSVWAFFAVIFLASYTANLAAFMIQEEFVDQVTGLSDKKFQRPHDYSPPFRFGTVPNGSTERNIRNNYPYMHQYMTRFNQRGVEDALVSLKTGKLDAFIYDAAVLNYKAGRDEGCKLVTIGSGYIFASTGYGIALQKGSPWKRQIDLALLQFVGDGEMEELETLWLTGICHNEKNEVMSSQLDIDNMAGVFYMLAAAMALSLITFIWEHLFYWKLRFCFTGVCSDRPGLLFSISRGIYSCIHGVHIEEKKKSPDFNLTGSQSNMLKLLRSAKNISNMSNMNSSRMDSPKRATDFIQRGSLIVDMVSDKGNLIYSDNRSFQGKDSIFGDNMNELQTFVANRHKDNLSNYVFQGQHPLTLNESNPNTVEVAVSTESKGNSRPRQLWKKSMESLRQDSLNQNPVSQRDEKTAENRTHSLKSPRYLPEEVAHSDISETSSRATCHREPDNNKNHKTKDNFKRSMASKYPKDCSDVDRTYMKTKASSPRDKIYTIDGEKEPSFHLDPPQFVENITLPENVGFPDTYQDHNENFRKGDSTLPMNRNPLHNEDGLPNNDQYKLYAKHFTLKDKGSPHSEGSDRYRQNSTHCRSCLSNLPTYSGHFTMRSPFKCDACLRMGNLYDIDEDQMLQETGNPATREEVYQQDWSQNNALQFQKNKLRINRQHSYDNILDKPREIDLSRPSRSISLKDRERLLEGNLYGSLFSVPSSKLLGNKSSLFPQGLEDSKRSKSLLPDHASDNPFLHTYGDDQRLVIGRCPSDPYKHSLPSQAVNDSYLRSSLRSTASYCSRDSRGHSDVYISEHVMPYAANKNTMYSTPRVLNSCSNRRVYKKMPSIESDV

rat GluN1/GluN2A [6] = target: T4, rat GluN1/GluN2A; assay: Two-electrode voltage-clamp recordings, recombinant receptors in Xenopus oocytes; type: cell-based; conditions: for nH (Hill slope): 30 µM glycine; for nH (Hill slope, inhibition): 100 µM glutamate plus 30 µM glycine
human GluN1/GluN2D [7] = target: T3, human GluN1/GluN2D; conditions: HEK293 cells, 2 mM extracellular Ca2+, ref Hess et al., 1998; cited from earlier work
rat GluN1/GluN2D [8] = target: T2, rat GluN1/GluN2D; type: cell-based; conditions: for nH (Hill slope): 30 µM glycine
[9] = tested on: human and rat NMDA receptor subtypes; assay: Two-electrode voltage-clamp, relative agonist efficacy across subtypes; type: cell-based; conditions: range over human and rat subtypes; same recording; 30 µM glycine
[10] = rat GluN1/GluN2C, 100 µM glutamate plus 30 µM glycine
[11] = human GluN1/GluN2D, 100 µM glutamate plus 30 µM glycine
[12] = rat GluN1/GluN2D, 100 µM glutamate plus 30 µM glycine
[13] = rat GluN1/GluN2C, 100 µM glutamate plus 30 µM glycine, -40 mV
[14] = human GluN1/GluN2D, 100 µM glutamate plus 30 µM glycine, -40 mV
[15] = human GluN1/GluN2C, 100 µM glutamate plus 30 µM glycine, -40 mV
[16] = rat GluN1/GluN2D, 100 µM glutamate plus 30 µM glycine, -40 mV

In the case of OC(CN1CCC(Cc2ccc(F)cc2)CC1)c1ccc(Cl)cc1 (stereo not drawn) [eliprodil, α-(4-chlorophenyl)-4-[(4-fluorophenyl)methyl]-1-piperidineethanol], the “nH (Hill slope, inhibition)” value (human GluN1/GluN2B) is reported as 1.3 and the “nH (Hill slope, inhibition)” value (rat GluN1/GluN2B [1]; rat GluN1/GluN2B, -40 mV) is reported as 1.2.
With N[C@@H](CCC(=O)O)C(=O)O [glutamate, L-glutamic acid] the “nH (Hill slope)” value (human GluN1/GluN2B; 30 µM glycine) was 1.8, the “nH (Hill slope)” value (rat GluN1/GluN2C; rat GluN1/GluN2C) was 1.4 and the “nH (Hill slope)” value (rat GluN1/GluN2B [1]; rat GluN1/GluN2B) was 1.5. The “τdeactivation following removal of glutamate” value (rat GluN1/GluN2D [2]) was over 2 s, the “nH (Hill slope)” value (human GluN1/GluN2D [3]) was 1.5 and the “nH (Hill slope)” value (human GluN1/GluN2A; 30 µM glycine) was 1.3. The “τdeactivation glutamate (weighted time constant)” value (“τdeactivation glutamate” below) (rat GluN1/GluN2B [4]) was 287 ^k ms, the “nH (Hill slope)” value (human GluN1/GluN2C) was 1.6 and the “τdeactivation glutamate” value (rat GluN1/GluN2A [5]) was 54 ^k ms. For the same compound, the “nH (Hill slope)” value (rat GluN1/GluN2A [6]; rat GluN1/GluN2A) was 1.4, the “τdeactivation glutamate” value (human GluN1/GluN2D [7]) was 6300 ^a ms and the “nH (Hill slope)” value (rat GluN1/GluN2D [8]; rat GluN1/GluN2D) was 1.5.
In the case of CN[C@H](CC(=O)O)C(=O)O [NMDA, N-methyl-D-aspartate], the “nH (Hill slope)” value (human GluN1/GluN2B; 30 µM glycine) is reported as 1.4, the EC50 (human GluN1/GluN2B; continuous presence of 30 µM glycine) is reported as 23 ± 2 µM and the “nH (Hill slope)” value (rat GluN1/GluN2C; rat GluN1/GluN2C) is reported as 1.4. For the same compound, the EC50 (rat GluN1/GluN2C; rat GluN1/GluN2C, continuous presence of 30 µM glycine, -40 mV) was 19 ± 2 µM, the “nH (Hill slope)” value (rat GluN1/GluN2B [1]; rat GluN1/GluN2B) was 1.7 and the EC50 (rat GluN1/GluN2B [1]; rat GluN1/GluN2B, continuous presence of 30 µM glycine, -40 mV) was 21 ± 4 µM. For the same compound, the “maximal activation compared to maximal activation by the full agonist glutamate” value [9] was 69–89%, the EC50 (human GluN1/GluN2D [3]) was 6.7 ± 0.2 µM and the “nH (Hill slope)” value (human GluN1/GluN2D [3]) was 2.1. The “nH (Hill slope)” value (human GluN1/GluN2A; 30 µM glycine) was 1.3, the EC50 (human GluN1/GluN2A; continuous presence of 30 µM glycine, -40 mV) was 68 ± 3 µM and the EC50 (human GluN1/GluN2C) was 19 ± 1 µM. For the same compound, the “nH (Hill slope)” value (human GluN1/GluN2C) was 1.2, the “nH (Hill slope)” value (rat GluN1/GluN2A [6]; rat GluN1/GluN2A) was 1.5 and the EC50 (rat GluN1/GluN2A [6]; rat GluN1/GluN2A, continuous presence of 30 µM glycine, -40 mV) was 71 ± 9 µM. The “nH (Hill slope)” value (rat GluN1/GluN2D [8]; rat GluN1/GluN2D) was 1.7 and the EC50 (rat GluN1/GluN2D [8]; rat GluN1/GluN2D, continuous presence of 30 µM glycine, -40 mV) was 7.9 ± 0.9 µM.
With COc1ccc(OCC2c3cc(OC)c(OC)cc3CCN2C(=O)c2cccc(Cl)c2)cc1 (centres unmarked) [CIQ, (3-chlorophenyl) [3,4-dihydro-6,7-dimethoxy-1-[(4-methoxyphenoxy)methyl]-2(1H)-isoquinolinyl]methanone] the “maximal potentiation compared to NMDA receptor currents in the absence of CIQ” value (rat GluN1/GluN2C; [10]) was 260 ± 30, the “nH (Hill slope, potentiation)” value (rat GluN1/GluN2C; [10]) was 1.1 and the “maximal potentiation compared to NMDA receptor currents in the absence of CIQ” value (human GluN1/GluN2D [3]; [11]) was 250 ± 10. The “nH (Hill slope, potentiation)” value (human GluN1/GluN2D [3]; [11]) was 1.3, the “nH (Hill slope, potentiation)” value (human GluN1/GluN2C; human GluN1/GluN2C, 100 µM glutamate plus 30 µM glycine) was 1.6 and the “maximal potentiation compared to NMDA receptor currents in the absence of CIQ” value (rat GluN1/GluN2D [8]; [12]) was 240 ± 20. The “nH (Hill slope, potentiation)” value (rat GluN1/GluN2D [8]; [12]) was 1.3.
In the case of NCC(=O)O [glycine], the “nH (Hill slope)” value (human GluN1/GluN2B; 100 µM glutamate) is reported as 1.7, the EC50 (human GluN1/GluN2B; continuous presence of 100 µM glutamate) is reported as 0.29 ± 0.04 µM and the EC50 (human GluN1/GluN2D [3]) is reported as 0.12 ± 0.01 µM. For the same compound, the “nH (Hill slope)” value (human GluN1/GluN2D [3]) was 1.8, the “nH (Hill slope)” value (human GluN1/GluN2A; 100 µM glutamate) was 1.3 and the EC50 (human GluN1/GluN2C) was 0.25 ± 0.01 µM. For the same compound, the “nH (Hill slope)” value (human GluN1/GluN2C) was 1.6 and the “τdeactivation glycine (weighted time constant)” value (human GluN1/GluN2D [7]) was 1800 ^a ms.
For NC(=NCc1ccc(Cl)cc1)SCCCc1cnc[nH]1 [clobenpropit, N-(4-chlorobenzyl)-S-[3-(4(5)-imidazolyl)propyl]isothiourea dihydrobromide], the “nH (Hill slope, inhibition)” value (human GluN1/GluN2B) was 1.0, the “nH (Hill slope, inhibition)” value (rat GluN1/GluN2C; [13]) was 0.8 and the “nH (Hill slope, inhibition)” value (rat GluN1/GluN2B [1]; rat GluN1/GluN2B, -40 mV) was 1.3. For the same compound, the “nH (Hill slope, inhibition)” value (human GluN1/GluN2D [3]; [14]) was 1.0, the “nH (Hill slope, inhibition)” value (human GluN1/GluN2A; -40 mV) was 1.0 and the “nH (Hill slope, inhibition)” value (human GluN1/GluN2C; [15]) was 0.9. The “IC50 fold higher at rat compared to human” value (rat GluN1/GluN2A [6]; GluN1/GluN2A, rat vs human) was 1.9 fold and the “nH (Hill slope, inhibition)” value (rat GluN1/GluN2D [8]; [16]) was 0.9.
With CC(C(O)c1ccc(O)cc1)N1CCC(Cc2ccccc2)CC1 (stereo not drawn) [ifenprodil, (1R*,2S*)-erythro-2-(4-benzylpiperidino)-1-(4-hydroxyphenyl)-1-propanol hemitartrate] the “nH (Hill slope, inhibition)” value (human GluN1/GluN2B) was 1.1, the “nH (Hill slope, inhibition)” value (rat GluN1/GluN2B [1]; rat GluN1/GluN2B, -40 mV) was 1.2 and the “nH (Hill slope, inhibition)” value (rat GluN1/GluN2A [6]; rat GluN1/GluN2A, -40 mV) was 1.2.
For CN[C@]1(c2ccccc2Cl)CCCCC1=O [(+)ketamine, S-(+)-ketamine hydrochloride], the “nH (Hill slope, inhibition)” value (human GluN1/GluN2B) was 1.0, the “nH (Hill slope, inhibition)” value (rat GluN1/GluN2C; [13]) was 1.0 and the “IC50 fold lower at rat compared to corresponding human subtype” value (rat GluN1/GluN2B [1]; GluN1/GluN2B, rat vs human) was 1.6 fold. For the same compound, the “nH (Hill slope, inhibition)” value (rat GluN1/GluN2B [1]; rat GluN1/GluN2B, -40 mV) was 0.9, the IC50 (human GluN1/GluN2D [3]) was 2.4 ± 0.1 µM and the “nH (Hill slope, inhibition)” value (human GluN1/GluN2D [3]) was 0.9. The “nH (Hill slope, inhibition)” value (human GluN1/GluN2A; -40 mV) was 1.0, the IC50 (human GluN1/GluN2C) was 0.79 ± 0.04 µM and the “nH (Hill slope, inhibition)” value (human GluN1/GluN2C) was 0.9. The “nH (Hill slope, inhibition)” value (rat GluN1/GluN2A [6]; rat GluN1/GluN2A, -40 mV) was 1.0, the “IC50 fold lower at rat compared to corresponding human subtype” value (rat GluN1/GluN2D [8]; GluN1/GluN2D, rat vs human) was 1.7 fold and the “nH (Hill slope, inhibition)” value (rat GluN1/GluN2D [8]; [16]) was 1.0.
For CC12CC3CC(C)(C1)CC(N)(C3)C2 [memantine, memantine hydrochloride], the “nH (Hill slope, inhibition)” value (human GluN1/GluN2B) was 1.0, the “nH (Hill slope, inhibition)” value (human GluN1/GluN2D [3]) was 0.9 and the “nH (Hill slope, inhibition)” value (human GluN1/GluN2A; -40 mV) was 1.1. The “nH (Hill slope, inhibition)” value (human GluN1/GluN2C) was 1.0.
In the case of COc1ccc2nc(/C=C/c3cccc([N+](=O)[O-])c3)n(-c3ccc(C(=O)O)cc3)c(=O)c2c1 [QNZ46, (E)-4-(6-methoxy-2-(3-nitrostyryl)-4-oxoquinazolin-3(4H)-yl)-benzoic acid], the IC50 (human GluN1/GluN2B) is reported as over 100 µM, the “IC50 fold higher at rat compared to human” value (rat GluN1/GluN2C; GluN1/GluN2C, rat vs human) is reported as 1.2 fold and the “nH (Hill slope, inhibition)” value (rat GluN1/GluN2C; [13]) is reported as 1.2. For the same compound, the IC50 (rat GluN1/GluN2B [1]) was over 100 µM, the “nH (Hill slope, inhibition)” value (human GluN1/GluN2D [3]; [14]) was 1.0 and the “nH (Hill slope, inhibition)” value (human GluN1/GluN2C; [15]) was 1.0. For the same compound, the “nH (Hill slope, inhibition)” value (rat GluN1/GluN2D [8]; [16]) was 1.0.
